Starred links: 1 amine or outer side, 2 acyl side, 3 side chain; linkers in the order of their positions; H or OH if unused. Non-standard residues stand in square brackets, D forms with d. Residues, ends and D or L forms follow the SMILES beside them. *: point of attachment. Dolaproine = CO[C@@H]([C@@H]1CCCN1)[C@@H](C)C(=O)O; Hexanoyl(6-maleimido) = O=C1C=CC(=O)N1CCCCCC(=O)*; Dil = CC[C@H](C)[C@H](NC)[C@@H](CC(=O)O)OC; PABC = O=C(OCc1ccc(N[*:1])cc1)[*:2]; X1 = C[C@@H](N*)[C@@H](O)c1ccccc1; Cit = NC(=O)NCCC[C@H](N)C(=O)O; NMeV = CN[C@H](C(=O)O)C(C)C
Tests used:
[1] = system: PSMA-positive cell line LNCaP-C4.2; assay: In vitro cytotoxicity, PSMA-positive cell line; format: cell-based, human; settings: for % efficacy: at the highest concentration tested (~100 nM)
[2] = system: 5T4-positive cell line MDA-MB-468; assay: In vitro cytotoxicity, 5T4-positive cell line; format: cell-based, human; settings: anti-5T4-vc-seco-DUBA ADCs
Experimental: The potencies of the engineered anti-5T4 ADCs were equal to the conventionally linked ADC H8-wt on 5T4-expressing MDA-MB-468 cells (IC50 between 0.07 and 0.09 nM, Table 6).

Structure (SMILES) | IC50 ([1]; anti-PSMA-vc-MMAE ADCs) | % efficacy ([1]; anti-PSMA-vc-MMAE ADCs) | % efficacy ([1]; anti-PSMA-vc-seco-DUBA ADCs) | IC50 ([1]; anti-PSMA-vc-seco-DUBA ADCs, based on drug equivalents) | IC50 [2] | % efficacy ([2]; at the highest concentration tested (~100 nM))
CC[C@H](C)[C@@H]([C@@H](CC(=O)N1CCC[C@H]1[C@H](OC)[C@@H](C)C(=O)N[C@H](C)[C@@H](O)c1ccccc1)OC)N(C)C(=O)[C@@H](NC(=O)[C@H](C(C)C)N(C)C(=O)OCc1ccc(NC(=O)[C@H](CCCNC(N)=O)NC(=O)[C@@H](NC(=O)CCCCCN2C(=O)C=CC2=O)C(C)C)cc1)C(C)C [Free linker drug (vc-MMAE), vc-MMAE] ({Hexanoyl(6-maleimido)}-V[Cit][PABC][NMeV]V[Dil][Dolaproine]-X1) | 230 pM | 94% | – | – | – | –
Cc1cccc2c(OC(=O)N(CCOCCO)CCN(C)C(=O)OCc3ccc(NC(=O)[C@H](CCCNC(N)=O)NC(=O)[C@@H](NC(=O)OCCOCCN4C(=O)C=CC4=O)C(C)C)cc3)cc3c(c12)[C@H](CCl)CN3C(=O)c1cn2cc(NC(=O)c3ccc(O)cc3)ccc2n1 [Free linker drug, vc-seco-DUBA] | – | – | 98% | 20 pM | 20 pM | 94%

Source: patent publication US11104968B2, “Site-specific conjugation of linker drugs to antibodies and resulting ADCS” (Byondis B.V., priority 2014, dated 2021)
